Laboratory results: patent US8748462B2, “Spirocyclic GPR40 modulators” (Amgen Inc., priority 2008, dated 2014)

target: T1, human GPR40 (Homo sapiens, UniProt O14842); assay: Cell-based aequorin assay; conditions: CHO cells stably transfected with GPR40 and aequorin; 0.01% HSA
T1 construct: expressed in transfected cells; host or cells: CHO cells stably transfected with GPR40 and Aequorin
Procedure: Cell-based aequorin assays were employed to characterize the modulatory activity of compounds on the GPR40 signaling pathway. In an exemplary assay, CHO cells were stably transfected with both GPR40 and Aequorin (Euroscreen). Cells were detached from the tissue culture dish with 2 mL of trypsin (0.25% (w/v)). Trypsinization was halted with 28 mL of Hanks Buffered Salt Solution containing 20 mM Hepes (H/HBSS) and 0.01% fatty acid-free human serum albumin (HSA). Coelantrazine is added to 1 ug/mL, and the cells were incubated for 2 hours at room temperature. Compounds were dissolved in DMSO for preparation of 10 mM stock solutions. Compounds were diluted in H/HBSS containing 0.01% HSA. Serial dilutions of the test compounds were prepared to determine dose response.
Aequorin luminescence measurements were made using an EG&G Berthold 96-well luminometer, and the response was measured over a 20 second interval after cells and compounds were mixed. The maximum relative light units was plotted to determine dose response. The EC50 (effective concentration to reach 50% maximal response) was determined from the dose response plot.

T1 sequence (O14842 whole entry): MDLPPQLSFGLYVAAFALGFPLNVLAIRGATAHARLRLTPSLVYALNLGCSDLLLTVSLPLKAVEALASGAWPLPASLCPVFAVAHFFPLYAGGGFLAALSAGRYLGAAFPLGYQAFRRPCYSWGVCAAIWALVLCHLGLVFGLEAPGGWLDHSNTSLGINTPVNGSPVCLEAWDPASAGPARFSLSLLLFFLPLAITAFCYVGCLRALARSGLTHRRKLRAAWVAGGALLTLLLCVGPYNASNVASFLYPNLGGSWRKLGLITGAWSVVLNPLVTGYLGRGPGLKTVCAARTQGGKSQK

First: C=CC(C)(C)[C@H]1c2cc(COc3ccc4c(c3)[C@]3(CC4)C[C@H]3C(=O)O)ccc2-c2c(F)ccc(OC)c21 (racemic) [Example 21]
Second: C=CC(C)(C)[C@@H]1c2cc(COc3ccc4c(c3)[C@]3(CC4)C[C@H]3C(=O)O)ccc2-c2c(F)ccc(OC)c21 (single isomer, unassigned) [Example 23]
The EC50 of the first is lower: 100 to 1000 nM for the first, 1000 to 10000 nM for the second.

`CO[C@@H](c1cc(COc2ccc3c(c2)[C@]2(CCC3)C[C@H]2C(=O)O)ccc1Br)C(C)(C)C` (racemic) [Example 132] and `CO[C@@H](c1cc(COc2ccc3c(c2)[C@]2(CCC3)C[C@H]2C(=O)O)ccc1-c1cncs1)C(C)(C)C` (racemic) [Example 135] fall in the same range of EC50: 1000 to 10000 nM for the first, 1000 to 10000 nM for the second.

`CO[C@@H](c1cc(COc2ccc3c(c2)[C@]2(CCC3)C[C@H]2C(=O)O)ccc1-c1ccnc(C(F)(F)F)c1)C(C)(C)C` (racemic) [Example 136] and `CO[C@@H](c1cc(COc2ccc3c(c2)[C@]2(CCC3)C[C@H]2C(=O)O)ccc1-c1cncc(F)c1)C(C)(C)C` (racemic) [Example 138] fall in the same range of EC50: 1000 to 10000 nM for the first, 1000 to 10000 nM for the second.

First: COc1ccc(F)c(-c2ccc(COc3ccc4c(c3)[C@@]3(CC4)C[C@@H]3C(=O)O)cc2[C@H]2CCCC2(C)C)c1 (single isomer, unassigned) [Example 10]
Second: COc1ccc(F)c(-c2ccc(COc3ccc4c(c3)[C@]3(CC4)CC[C@@H]3C(=O)O)cc2[C@@H]2CCCC2(C)C)c1 (single isomer, unassigned) [Example 146]
The EC50 of the first is higher: over 10000 nM for the first, 100 to 1000 nM for the second.

Compared with `COc1ccc(F)c(-c2ccc(COc3cc(F)c4c(c3F)[C@@]3(CC4)C[C@@H]3C(=O)O)cc2[C@H]2CCCC2(C)C)c1` (single isomer, unassigned) [Example 34], `COc1ccc(F)c(-c2ccc(COc3cc(F)c4c(c3F)[C@]3(CC4)C[C@@H]3C(=O)O)cc2[C@H]2CCCC2(C)C)c1` (single isomer, unassigned) [Example 35] is higher in EC50: 1000 to 10000 nM for the first, over 10000 nM for the second. The first is the more potent here.

First: COc1ccc(F)c(-c2ccc(COc3cc(F)c4c(c3F)[C@@]3(CC4)C[C@H]3C(=O)O)cc2[C@H]2CCCC2(C)C)c1 (single isomer, unassigned) [Example 36]
Second: COc1cc(-c2ccc(COc3cc(F)c4c(c3F)[C@]3(CC4)C[C@H]3C(=O)O)cc2[C@@H]2CCCC2(C)C)c(F)cn1 (single isomer, unassigned) [Example 42]
The EC50 of the first is higher: over 10000 nM for the first, 1000 to 10000 nM for the second.

First: COc1ccc(F)c(-c2ccc(COc3cc(F)c4c(c3F)[C@]3(CC4)C[C@H]3C(=O)O)cc2[C@@H](OC)C(C)(C)C)c1 (single isomer, unassigned) [Example 37]
Second: COc1ccc(F)c(-c2ccc(COc3cc(F)c4c(c3F)[C@@]3(CC4)C[C@@H]3C(=O)O)cc2[C@@H](OC)C(C)(C)C)c1 (single isomer, unassigned) [Example 38]
The EC50 of the first is lower: 10 to 100 nM for the first, 1000 to 10000 nM for the second.

`COc1ccc(F)c(-c2ccc(COc3cc(F)c4c(c3F)[C@]3(CC4)C[C@@H]3C(=O)O)cc2[C@@H](OC)C(C)(C)C)c1` (single isomer, unassigned) [Example 39] and `COc1ccc(F)c(-c2ccc(COc3cc(F)c4c(c3F)[C@@]3(CC4)C[C@H]3C(=O)O)cc2[C@@H](OC)C(C)(C)C)c1` (single isomer, unassigned) [Example 40] fall in the same range of EC50: 1000 to 10000 nM for the first, 1000 to 10000 nM for the second.

First: COc1cc(-c2cc(F)c(COc3ccc4c(c3)[C@]3(CCC4)C[C@H]3C(=O)O)cc2[C@H]2CCCC2(C)C)c(F)cn1 (single isomer, unassigned) [Example 43]
Second: COc1cc(-c2ccc(COc3ccc4c(c3)[C@]3(CCC4)CC[C@@H]3C(=O)O)cc2[C@@H]2CCCC2(C)C)c(F)cn1 (single isomer, unassigned) [Example 153]
The EC50 of the first is lower: 10 to 100 nM for the first, 1000 to 10000 nM for the second. The first is the more potent here.

`COc1ccc(COc2ccc3c(c2)[C@]2(CCC3)C[C@H]2C(=O)O)cc1[C@@H]1CCCC1(C)C` (single isomer, unassigned) [Example 128] and `COc1ccc(Cl)c(-c2ccc(COc3ccc4c(c3F)[C@@]3(CC4)C[C@@H]3C(=O)O)cc2[C@@H]2CCCC2(C)C)n1` (stereo in doubt) [Example 126] fall in the same range of EC50: 1000 to 10000 nM for the first, 1000 to 10000 nM for the second.

First: COc1ccc(F)c(-c2ccc(COc3ccc4c(c3)[C@@]3(CC4)[C@H](C(=O)O)[C@@H]3C)cc2[C@@H]2CCCC2(C)C)c1 (single isomer, unassigned) [Example 140]
Second: COc1ccc(F)c(-c2ccc(COc3ccc4c(c3)[C@@]3(CC4)C[C@@H]3C(=O)O)cc2C2=CCCC2(C)C)c1 [Example 2]
The EC50 of the first is lower: 100 to 1000 nM for the first, over 10000 nM for the second.

Compared with `COc1ccc(F)c(-c2ccc(COc3ccc4c(c3)[C@]3(CC4)CC[C@@H]3C(=O)O)cc2[C@@H](OC)C(C)(C)C)c1` (single isomer, unassigned) [Example 145], `COc1ccc(F)c(-c2ccc(COc3ccc4c(c3)C3(CC4)CCC3C(=O)O)cc2C(OC)C(C)(C)C)c1` (single isomer, unassigned) [Example 147] is lower in EC50: 1000 to 10000 nM for the first, 100 to 1000 nM for the second.

`COc1ccc(F)c(-c2ccc(COc3ccc4c(c3)[C@]3(CCC4)CC[C@@H]3C(=O)O)cc2[C@@H](OC)C(C)(C)C)c1` (single isomer, unassigned) [Example 152] and `COc1ccc(F)c(-c2ccc(COc3ccc4c(c3)C3(CCC4)CCC3C(=O)O)cc2C(OC)C(C)(C)C)c1` (single isomer, unassigned) [Example 157] fall in the same range of EC50: 1000 to 10000 nM for the first, 1000 to 10000 nM for the second.

First: COc1ccc(F)c(-c2ccc(COc3ccc4c(c3)[C@]3(CC4)C[C@@H]3C(=O)O)cc2C2=CCCC2(C)C)c1 [Example 3]
Second: COc1ccc(F)c(-c2ccc(COc3ccc4c(c3)[C@@]3(CC4)C[C@H]3C(=O)O)cc2C2=CCCC2(C)C)c1 [Example 4]
The EC50 of the first is higher: over 10000 nM for the first, 1000 to 10000 nM for the second. The second is the more potent here.

First: COc1ccc(F)c(-c2cc(COc3ccc4c(c3)[C@]3(CC4)C[C@H]3C(=O)O)ccc2C(C)(C)C)c1 [Example 5]
Second: COc1ccc(F)c(-c2cc(COc3ccc4c(c3)[C@@]3(CC4)C[C@@H]3C(=O)O)ccc2C(C)(C)C)c1 [Example 6]
The EC50 of the first is lower: 1000 to 10000 nM for the first, over 10000 nM for the second. The first is the more potent here.

`COc1ccc(F)c(-c2cc(COc3ccc4c(c3)[C@]3(CC4)C[C@@H]3C(=O)O)ccc2C(C)(C)C)c1` [Example 7] and `COc1ccc(F)c(-c2cc(COc3ccc4c(c3)[C@@]3(CC4)C[C@H]3C(=O)O)ccc2C(C)(C)C)c1` [Example 8] cannot be ordered by EC50: over 10000 nM for the first, over 10000 nM for the second.

`C=CC1(c2cc(COc3ccc4c(c3)[C@]3(CC4)C[C@H]3C(=O)O)ccc2-c2cc(OC)ncc2F)CCCC1` [Example 26] and `COCC1(c2cc(COc3ccc4c(c3)[C@]3(CC4)C[C@H]3C(=O)O)ccc2-c2cc(OC)ncc2F)CCCC1` [Example 27] fall in the same range of EC50: 1000 to 10000 nM for the first, 1000 to 10000 nM for the second.

`COc1ccc(F)c(-c2ccc(COc3ccc4c(c3)[C@]3(CC4)C[C@H]3C(=O)O)cc2-c2nncn2C(C)C)c1` [Example 29] and `COc1ccc(F)c(-c2ccc(COc3ccc4c(c3)[C@@]3(CCC4)C[C@@H]3C(=O)O)cc2C2=CCCC2(C)C)c1` [Example 50] cannot be ordered by EC50: over 10000 nM for the first, over 10000 nM for the second.

`CC1(C)CCC(C)(C)c2cc(COc3ccc4c(c3)[C@]3(CC4)C[C@H]3C(=O)O)ccc21` [Example 104, (1R,2R)-6′-((5,5,8,8-tetramethyl-5,6,7,8-tetrahydro-2-naphthalenyl)methoxy)-2′,3′-dihydrospiro[cyclopropane-1,1′-indene]-2-carboxylic acid] gave an EC50 of over 10000 nM.
